Source: US11840527B2, “Non-fused thiophene derivatives and their uses” (ENYO PHARMA, priority 2018, dated 2023)

What was measured:
NFκB = NFκB reporter assay, TNFα stimulation of A549 reporter cells; assay type: cell-based; details: Homo sapiens; A549 NFκB-NanoLuciferase reporter cells, 4 ng/ml TNFα, 6 hours
Text: Compounds of the present invention have been tested for their capacity to inhibit NFκB.
The NFκB reporter construct was made by cloning 5 NFκB responsive elements upstream of a NanoLuciferase reporter gene flanked by AAVS1 genomic sequences.
NFκB Responsive element fused with NanoLuciferase and SV40 late Poly(A) signal was amplified from pNL3.2-NFκB-Nluc (Promega) using NFκB-NLUC-F and NFκB-NLUC-R primers and inserted by Infusion (TaKaRa) in AAVS1 SA-2A-puro-pA donor plasmid (Hockemeyer et al, Nat Biotechnol. 2009, 27, 851-7) digested by Sall. pCRISPR AAVS1-T2 expressing a guide RNA (gRNA) to target human AAVS1 (T2 target sequence) was constructed by inserting AAVS1-T2A hybridized primers in pLentiCRISPR v2-blast (Sanjana et al, Nat Methods. 2014, 11, 783-4) digested by Bsmb1.
A549 cells were transfected by the plasmids and puromycine selected for 5 days (1 μg mL-1). Then clones were obtained by limiting dilution and selected to maximize TNFα dependent NFkB-NanoLuciferase induction.
The reporter cells were seeded on a 96-well plate for overnight with DMEM including 10% FBS. Test compounds were added at varying concentrations. The cells then were treated with 4 ng/ml TNFα (Peprotech, ref E251) in DMEM+10% FBS. NanoGlo luciferase assay (Promega) was carried out 6 hours later. Luminescence was measured using a Spark 20M spectrofluorimeter (Tecan). Values were normalized to the luminescence measured in untreated cells.

[1] = target: T1, CISD1 Gene Product (mitoNEET) (Homo sapiens, UniProt Q9NZ45); assay: Stability of Fe-S cluster binding of purified NEET protein (absorbance 458 nm); assay type: biochemical
T1 sequence (Q9NZ45 33-108 limits assumed): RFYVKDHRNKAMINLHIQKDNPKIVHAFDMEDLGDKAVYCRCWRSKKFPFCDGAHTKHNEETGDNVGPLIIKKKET
Method: (§1) The modulator effect on the NEET proteins encoded by human CISD1, CISD2, and CISD3 genes by the compounds of the invention has been tested and is reported below. Particularly, the biochemical function of the NEET proteins is measured by the stability of Fe—S cluster binding of the purified NEET proteins.
(§2) The Fe—S cluster binding capacity of NEET proteins is known to be coordinated by four amino-acids in a stretch of 16 (three Cysteine and one Histidine). As the lability of the Fe—S cluster of NEET proteins is sensitive to the environment, cluster stability measurements are one of the measures of interactions of NEET proteins with small molecules and compounds. NEET protein/2Fe-2S cluster stability can be assessed by monitoring the decay in absorbance of its characteristic 458-nm peak (characteristic of the oxidized 2Fe-2S cluster) over time. Each NEET protein (mitoNEET, NAF-1 and Miner 2) was tested for its Fe—S binding in the absence or presence of a compound according to the invention (see table 3 below). The rate of cluster release (time in minutes to achieve 50% loss of bound Fe—S cluster) was compared for each NEET protein in the presence of one of the compounds of the invention (in a 1:3 protein:compound molar ratio) relative to each protein alone.
(§3) At pH 6, all the three NEET proteins (mitoNEET, NAF-1 and Miner 2) have a characteristic rate of loss of the bound Fe—S cluster that can be measured by the decrease of absorbance at wavelength 458 nm over time, using a spectrophotometer. Thus, Bis-Tris buffer (100 mM Bis-Tris pH6, 100 mM Nacl) was used at pH 6 to dilute either DMSO (Blank sample: Bis-Tris Buffer pH 6, 66 μM DMSO), DMSO and one of the three NEET proteins (Control sample: Bis-Tris Buffer pH 6, 66 μM DMSO, 20 μM purified NEET protein) or DMSO, one of the three NEET proteins and a compound of the invention (Test sample: Bis-Tris Buffer pH 6, 66 μM DMSO, 20 μM purified NEET protein, 60 μM compound of the invention).
(§4) A reaction mix containing DMSO diluted in the Bis-Tris Buffer with or without a compound of the invention was prepared. The purified NEET protein was the last component added to the reaction mix which was then aliquoted into 4 replicates in 96 wells plates. The absorbance at wavelength 458 nm was taken at 5 minutes intervals at 37° C. with a spectrofluorimeter. The assay run time for CISD2 gene product (NAF-1) was 500 minutes and 180 minutes for both the CISD 1 gene product (mitoNEET) and the CISD3 gene product (Miner 2).
(§5) In addition to time monitoring, residual bound Fe—S cluster to NEET protein was measured at the final point of the spectrometry assay for each Test sample and compared to the Control sample data (in parenthesis table 3). This residual binding is measured by the differential percentage between the absorbance 458 nm at time zero and the absorbance 458 nm at the end of the experiment (i.e. respectively 500 or 180 minutes as described hereabove), showing the percentage of NEET protein still able to bind Fe—S cluster.
(§6) Analysis of the absorbance enables the time for which 50% loss of bound Fe—S cluster is reached (i.e. a 50% absorbance decrease at 458 nm) for each Test sample and each Control sample (in parenthesis table 3) to be determined. The data are then compared to determine whether the compound of the invention stabilizes or destabilizes the NEET protein/Fe—S cluster binding.
(§7) Stabilisers of Fe—S cluster binding by the NEET proteins slow the release of bound Fe—S (i.e. increase the time needed to reach 50% Fe—S cluster bound loss by more than 25% for the Test sample compared to the Control sample). As illustrated by table 3, at the concentrations tested, stabilisers of CISD1 Gene Product (mitoNEET) are the compounds #9, #18, #26, #2, #1, and #42. Stabilisers of CISD2 Gene Product (NAF-1) are the compounds #2, #1, and #40. Stabilisers of CISD3 Gene Product (Miner2) are the compounds #9, #18, #26, #2, #1, and #42.

[2] = target: T2, CISD3 Gene Product (Miner2) (Homo sapiens, UniProt P0C7P0); assay: as above; assay type: biochemical
T2 sequence (P0C7P0 15-127): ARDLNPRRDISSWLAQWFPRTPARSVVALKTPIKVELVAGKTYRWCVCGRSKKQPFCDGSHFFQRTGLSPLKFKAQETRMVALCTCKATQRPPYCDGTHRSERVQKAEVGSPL
Method: as §1, §2, §3, §4, §5, §6, §7

[3] = target: T3, CISD2 Gene Product (NAF-1) (Homo sapiens, UniProt Q8N5K1); assay: as above; assay type: biochemical; details: 60 μM compound
T3 sequence (Q8N5K1 57-135 limits assumed): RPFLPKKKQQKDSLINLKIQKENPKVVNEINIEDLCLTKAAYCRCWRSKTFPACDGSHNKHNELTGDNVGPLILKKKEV
Method: as §1, §2, §3, §4, §5, §6, §7

[4] = test system: H1N1 (influenza A/New Caledonia/20/99); assay: Antiviral effect on A549 cells infected with H1N1; assay type: cell-based, H1N1 A/New Caledonia/20/99 virus; details: Influenza A virus, MOI 0.1, 48 h post-infection, MUNANA neuraminidase readout
In short: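 A549 cells dosed with test compounds over a concentration range and infected at once with clinical isolate H1N1 A/New Caledonia/20/99 (MOI 0.1) in DMEM with […] TPCK trypsin, 37 °C. At 48 h, supernatant neuraminidase activity measured with MUNANA substrate (1 h, 37 °C); 4-MU fluorescence at ex 365/em 450 nm.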

## O=C(Nc1scc(C2CC3CCC2C3)c1C(=O)O)c1ccccc1 (stereo not shown) [Compound #9, 2-Benzamido-4-norbornan-2-yl-thiophene-3-carboxylic acid]
NFκB
  EC50: 1100 nM
[1]; at 180 minutes, 60 μM compound, vehicle control 16%
  Residual cluster bound at end of experiment (Percentage Absorbance 458 nm at time zero): 20% (16%)
[1]; at the concentrations tested
  Stabiliser of Fe—S cluster binding (time to 50% loss increased by more than 25% vs control): stabilisers
[1]; pH 6, 37° C., 20 μM protein, 60 μM compound, run time 180 minutes, vehicle control 80
  Time (in minutes) to achieve 50% loss of bound cluster (Absorbance 458 nm): 100 (80) minutes
[2]; CISD3 gene product, at 180 minutes, 60 μM compound, vehicle control (DMSO) 11%
  Residual cluster bound at end of experiment (Percentage Absorbance 458 nm at time zero): 57% (11%)
[2]; Miner2, at the concentrations tested
  Stabiliser of Fe—S cluster binding (time to 50% loss increased by more than 25% vs control): Stabilisers
[2]; Miner2, pH 6, 37° C., 20 μM protein, 60 μM compound, run time 180 minutes, vehicle control 60
  Time (in minutes) to achieve 50% loss of bound cluster (Absorbance 458 nm): during 180 minutes
[3]; at 500 minutes, vehicle control 3%
  Residual cluster bound at end of experiment (Percentage Absorbance 458 nm at time zero): 17% (3%)
[3]; pH 6, 37° C., 20 μM protein, run time 500 minutes, vehicle control 310
  Time (in minutes) to achieve 50% loss of bound cluster (Absorbance 458 nm): 370 (310) minutes
[4]
  IC50: 210 nM
